Tests used:
[1] = test system: influenza virus A strain New Calcdonia (H1N1); parameters: species or system Clawn minipigs; settings: minipig, in vivo
[2] = test system: influenza A virus strain Aichi/68/2/H3N2; assay: Nasal vaccination of mice; anti-influenza IgA and IgG in nasal cavity lavage fluids and blood serum by ELISA; assay type: in vivo, BALB/c mice; settings: compared with HA vaccine alone or with other AD vehicles

| Sequence | Effectiveness of AD vehicle in inducing antibody titers, in words [1] | Antibody-production-enhancing effect (IgA and/or IgG), in words [2] |
| --- | --- | --- |
| KKKKKKLLLLLLLLLLLLLLLL [K6L16, six K residues on the N-terminal side and 16 L residues on the C-terminal side] | effective |  |
| PVHLKRLLLLLLLLLLL [SP-CL11] | effective |  |
| PVHLRKLLLLLLLLLLLLLLLL (PVHLKRLLLLLLLLLLLLLLLL) [RK-SP-CL, comparison peptide; KR of the 5th-6th positions of SP-CL11 reversed to RK, more L residues] |  | not much involved in the antibody production |
